Earlier results as cited in PMC8124668, “Preclinical Assessment Addressing Intravenous Administration of a [^68Ga]Ga-PSMA-617 Microemulsion: Acute In Vivo Toxicity, Tolerability, PET Imaging, and Biodistribution” (Molecules, 2021).

Test system: male rats
Parameters: method as in PMID 28283702
Conditions: once weekly IV bolus on days 1, 8, 15 and 22, at 400 mg/kg

O=C(O)CCC(NC(=O)NC(CCCCNC(=O)C(Cc1ccc2ccccc2c1)NC(=O)C1CCC(CNC(=O)CN2CCN(CC(=O)O)CCN(CC(=O)O)CCN(CC(=O)O)CC2)CC1)C(=O)O)C(=O)O (stereo not shown) [PSMA-617, 2-[3-(1-Carboxy-5-{3-naphthalen-2-yl-2-[(4-{[2-(4,7,10-tris-carboxymethyl-1,4,7,10-tetraaza-cyclododec-1-yl)-acetylamino]-methyl}-cyclohexanecarbonyl)-amino]-propionylamino}-pentyl)-ureido]-pentanedioic acid]
local or systemic intolerance reactions: No signs of local or systemic intolerance reactions
